Where “and” joins values, the source holds several entries; their conditions need not be identical. Equal values may be shown once.
Columns and labels:
Assay in all cases: Clonogenic assay
Assay type in all cases: cell-based
CAPAN-1 cells = settings: for percent suvival: Capan-1 cells
Outline: (§1)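 Cells seeded at low density (300–1000 per well, by plate size and genotype), medium changed every 2 days, colonies grown 10–12 days. Fixed in water:ethanol:acetic acid, stained with 0.5% crystal violet, then counted; IC50 from ≥3 independent experiments, mean ± SEM.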

HCT116 BRCA2 -/- cells = settings: for Average number of colonies counted / Normalized colonies (% normalized to control): per experiment
Outline: as §1

MDA-MB-231 cells = settings: for percent suvival: Fig. 2f
Outline: as §1

CN(C(=O)Oc1c(N2CCN(CCO)C2=O)cc(C(F)(F)F)cc1C(F)(F)F)c1ccc(F)cc1 [RTx-161]
percent suvival (CAPAN-1 cells; RTX-161 2 micro M + ola 0.041 micro M, experiment block 1 (c0-c9)): 16.0976%
percent suvival (CAPAN-1 cells; RTX-161 2 micro M + ola 0.041 micro M, experiment block 2 (c10-c19)): 65.2438%
percent suvival (CAPAN-1 cells; RTX-161 2 micro M + ola 0.041 micro M, experiment block 3 (c20-c29)): 82.5985%
percent suvival (CAPAN-1 cells; RTX-161 2 micro M + ola 0.123 micro M, experiment block 1 (c0-c9)): 6.496%
percent suvival (CAPAN-1 cells; RTX-161 2 micro M + ola 0.123 micro M, experiment block 2 (c10-c19)): 35.6906%
percent suvival (CAPAN-1 cells; RTX-161 2 micro M + ola 0.123 micro M, experiment block 3 (c20-c29)): 71.0728%
percent suvival (CAPAN-1 cells; RTX-161 2 micro M + ola 0.37 micro M, experiment block 1 (c0-c9)): 4.656%
percent suvival (CAPAN-1 cells; RTX-161 2 micro M + ola 0.37 micro M, experiment block 2 (c10-c19)): 25.2846%
percent suvival (CAPAN-1 cells; RTX-161 2 micro M + ola 0.37 micro M, experiment block 3 (c20-c29)): 54.8012%
percent suvival (CAPAN-1 cells; RTX-161 2 micro M + ola 1.11 micro M, experiment block 1 (c0-c9)): 3.463%
percent suvival (CAPAN-1 cells; RTX-161 2 micro M + ola 1.11 micro M, experiment block 2 (c10-c19)): 19.041%
percent suvival (CAPAN-1 cells; RTX-161 2 micro M + ola 1.11 micro M, experiment block 3 (c20-c29)): 23.1621%
percent suvival (CAPAN-1 cells; RTX-161 2 micro M, ola 0.00 micro M, experiment block 1 (c0-c9)): 102.855%
percent suvival (CAPAN-1 cells; RTX-161 2 micro M, ola 0.00 micro M, experiment block 2 (c10-c19)): 79.1879%
percent suvival (CAPAN-1 cells; RTX-161 2 micro M, ola 0.00 micro M, experiment block 3 (c20-c29)): 91.4122%
percent suvival (CAPAN-1 cells; RTX-161 6 micro M + ola 0.041 micro M, experiment block 1 (c0-c9)): 15.5586%
percent suvival (CAPAN-1 cells; RTX-161 6 micro M + ola 0.041 micro M, experiment block 2 (c10-c19)): 45.4723%
percent suvival (CAPAN-1 cells; RTX-161 6 micro M + ola 0.041 micro M, experiment block 3 (c20-c29)): 68.5869%
percent suvival (CAPAN-1 cells; RTX-161 6 micro M + ola 0.123 micro M, experiment block 1 (c0-c9)): 6.432%
percent suvival (CAPAN-1 cells; RTX-161 6 micro M + ola 0.123 micro M, experiment block 2 (c10-c19)): 32.777%
percent suvival (CAPAN-1 cells; RTX-161 6 micro M + ola 0.123 micro M, experiment block 3 (c20-c29)): 59.0951%
percent suvival (CAPAN-1 cells; RTX-161 6 micro M + ola 0.37 micro M, experiment block 1 (c0-c9)): 6.745%
percent suvival (CAPAN-1 cells; RTX-161 6 micro M + ola 0.37 micro M, experiment block 2 (c10-c19)): 21.1222%
percent suvival (CAPAN-1 cells; RTX-161 6 micro M + ola 0.37 micro M, experiment block 3 (c20-c29)): 41.2416%
percent suvival (CAPAN-1 cells; RTX-161 6 micro M + ola 1.11 micro M, experiment block 1 (c0-c9)): 6.364%
percent suvival (CAPAN-1 cells; RTX-161 6 micro M + ola 1.11 micro M, experiment block 2 (c10-c19)): 17.1679%
percent suvival (CAPAN-1 cells; RTX-161 6 micro M + ola 1.11 micro M, experiment block 3 (c20-c29)): 14.1224%
percent suvival (CAPAN-1 cells; RTX-161 6 micro M, ola 0.00 micro M, experiment block 1 (c0-c9)): 109.215%
percent suvival (CAPAN-1 cells; RTX-161 6 micro M, ola 0.00 micro M, experiment block 2 (c10-c19)): 55.8784%
percent suvival (CAPAN-1 cells; RTX-161 6 micro M, ola 0.00 micro M, experiment block 3 (c20-c29)): 75.1407%
percent suvival (CAPAN-1 cells; RTX-161 18 micro M + ola 0.041 micro M, experiment block 1 (c0-c9)): 10.9588%
percent suvival (CAPAN-1 cells; RTX-161 18 micro M + ola 0.123 micro M, experiment block 1 (c0-c9)): 6.3155%
percent suvival (CAPAN-1 cells; RTX-161 18 micro M + ola 0.37 micro M, experiment block 1 (c0-c9)): 7.064%
percent suvival (CAPAN-1 cells; RTX-161 18 micro M + ola 1.11 micro M, experiment block 1 (c0-c9)): 6.846%
percent suvival (CAPAN-1 cells; RTX-161 18 micro M, ola 0.00 micro M, experiment block 1 (c0-c9)): 83.7737%
combination with Olaparib (CAPAN-1 cells; clonogenic survival): significantly reduced cellular resistance to Olaparib
IC50 (HCT116 BRCA2 -/- cells; Homo sapiens, HCT-116, HCT116 cells, label beside BRCA2-null curve, read-out: IC50 clonogenic survival): ~1 µM
Normalized colonies, pooled Average of 3 experiments (HCT116 BRCA2 -/- cells; RTX-161 0.5 micro M): 92.0788%
Average number of colonies counted (HCT116 BRCA2 -/- cells; RTX-161 0.5 micro M): 70 and 37.3333 and 38
Normalized colonies (% normalized to control) (HCT116 BRCA2 -/- cells; RTX-161 0.5 micro M): 74.7331% and 113.131% and 88.3721%
Normalized colonies, pooled Average of 3 experiments (HCT116 BRCA2 -/- cells; RTX-161 1 micro M): 62.4064%
Average number of colonies counted (HCT116 BRCA2 -/- cells; RTX-161 1 micro M): 46.6667 and 26.6667 and 24.3333
Normalized colonies (% normalized to control) (HCT116 BRCA2 -/- cells; RTX-161 1 micro M): 49.8221% and 80.8081% and 56.5891%
Normalized colonies, pooled Average of 3 experiments (HCT116 BRCA2 -/- cells; RTX-161 2 micro M): 32.1189%
Normalized colonies (% normalized to control) (HCT116 BRCA2 -/- cells; RTX-161 2 micro M): 33.0961% and 35.3535% and 27.907%
Normalized colonies, pooled Average of 3 experiments (HCT116 BRCA2 -/- cells; RTX-161 4 micro M): 16.8132%
Normalized colonies, pooled Average of 3 experiments (HCT116 BRCA2 -/- cells; RTX-161 8 micro M): 8.53%
combination with Rucaparib (HCT116 BRCA2 -/- cells; clonogenic survival): strong synergistic activity
combination with Olaparib (HCT116 BRCA2 -/- cells; clonogenic survival, Combenefit synergy): strong synergistic activity
selective killing of BRCA2-null HCT116 cells (HCT116 BRCA2 -/- cells; colony survival, versus BRCA2-WT): selective killing
percent suvival (MDA-MB-231 cells; Rtx-161 5 microM + Talazoparib 12.5 nano M, experiment block 1 (c0-c7)): 68.1979%
percent suvival (MDA-MB-231 cells; Rtx-161 5 microM + Talazoparib 12.5 nano M, experiment block 2 (c8-c15)): 63.9241%
percent suvival (MDA-MB-231 cells; Rtx-161 5 microM + Talazoparib 12.5 nano M, experiment block 3 (c16-c23)): 59.2391%
percent suvival (MDA-MB-231 cells; Rtx-161 5 microM + Talazoparib 25 nano M, experiment block 1 (c0-c7)): 45.2297%
percent suvival (MDA-MB-231 cells; Rtx-161 5 microM + Talazoparib 25 nano M, experiment block 2 (c8-c15)): 50%
percent suvival (MDA-MB-231 cells; Rtx-161 5 microM + Talazoparib 25 nano M, experiment block 3 (c16-c23)): 34.2391%
percent suvival (MDA-MB-231 cells; Rtx-161 5 microM + Talazoparib 50 nano M, experiment block 1 (c0-c7)): 12.7208%
percent suvival (MDA-MB-231 cells; Rtx-161 5 microM + Talazoparib 50 nano M, experiment block 2 (c8-c15)): 18.9873%
percent suvival (MDA-MB-231 cells; Rtx-161 5 microM + Talazoparib 50 nano M, experiment block 3 (c16-c23)): 15.7609%
percent suvival (MDA-MB-231 cells; Rtx-161 5 microM, Talazoparib 0 nano M, experiment block 1 (c0-c7)): 93.6396%
percent suvival (MDA-MB-231 cells; Rtx-161 5 microM, Talazoparib 0 nano M, experiment block 2 (c8-c15)): 98.7342%
percent suvival (MDA-MB-231 cells; Rtx-161 5 microM, Talazoparib 0 nano M, experiment block 3 (c16-c23)): 88.587%
combination with Talazoparib (MDA-MB-231 cells; clonogenic survival, HR-proficient cells): modestly potentiated the effects of Talazoparib

Source: publication PMC10997755, “Discovery of a small-molecule inhibitor that traps Polθ on DNA and synergizes with PARP inhibitors” (Nature Communications, 2024)
